In patent US4056622A, “N-sulfonyl-N-dihalophenylimidazolidinediones” (Sumitomo Chemical Company, Limited, priority 1975, dated 1977):
Values after ≈ are worked out from the molar mass of the structure shown.

What was measured:
Alternaria bracissicola = assay: Test for Alternaria bracissicola-controlling effect (chinese cabbage); assay type: in vivo; settings: 7 ml per pot
Procedure: An aqueous dilution of the test compound in the form of a wettable powder preparation was applied to chinese cabbage (variety: Nozaki No. 2), cultured in pots of 9 cm in diameter and almost grown up to the two leaved stage, at a rate of 7 ml per pot. After one day, a spore suspension of Alternaria bracissicola was sprayed on the surface of the leaf for inoculation. The pots were left in a dark, moist room for one day and then under illumination for 2 days. Then, the infectious state was examined. The degree of damage was determined in the following manner. The rate of infectious area on the leaf was measured and classified in one of the infectious indexes (0, 1, 2, 3, 4, 5) according to the undermentioned criteria. The number of leaves corresponding to each infectious index (n0, n1, n2, n3, n4, n5) was determined, and calculation was effected according to the undermentioned equation.

Sclerotinia sclerotiorum = assay: Test for Sclerotinia sclerotiorum-controlling effect on cucumbers; assay type: in vivo; settings: cucumber; 100 ppm active ingredient, 7 ml per pot; 3 days after inoculation
Procedure: An aqueous dilution of the test compound in the form of a wettable powder preparation was applied to cucumbers, cultured in pots of 9 cm in diameter, when the first leaf was almost developed, at a rate of 7 ml per pot. After one day, Sclerotinia sclerotiorum was inoculated on the surface of the leaf, and the infectious state was examined three days thereafter. The degree of damage was determined in the following manner. The rate of infectious area on the leaf was measured and classified in one of the six infectious indexes (0, 1, 2, 3, 4, 5) according to the undermentioned criteria. The number of leaves corresponding to each infectious index (n0, n1, n2, n3, n4, n5) was determined, and calculation was effected according to the undermentioned equation.

Pellicularia sasakii = assay: Test for Pellicularia sasakii-controlling effect on rice plants; assay type: in vivo; settings: dust, 1.4 % active ingredient, 3 kg per 10 a, 5 days after inoculation
Procedure: The test compound in the form of a dust preparation was applied to rice plants (variety: Wase-Asahi), cultured in porcelain Wagner pots (1/500 a) and grown up to a grass height of 50 to 60 cm, at a rate of 3 kg per 10 a by the use of a duster. After one day, a mycelial disc of Pellicularia sasakii was attached to the sheath of each stem for inoculation. Five days thereafter, the size of the diseased spot generated on the sheath was measured, and the degree of damage was calculated according to the following equation to estimate the disease-controlling effect of the compound. [formula]

Botrytis cinerea [1] = assay: Test for Botrytis cinerea on cucumbers: systemic activity by the water culture method; assay type: in vivo; settings: cucumber, 5 ppm solution, 3 days, 3 days after inoculation
Procedure: The systemic activity of the test compound was tested by the water culture method in the following manner. The plants were pulled out from the pots carefully so as not to damage the roots, and the soil attached to the roots was well removed by water-washing. The plants were placed into flasks containing a 5 ppm solution of the test compound (50 ml) and allowed to stand for 3 days at a constant temperature under illumination. Agar discs with the mycelium were attached to the cotyledons for inoculation, and the degree of damage was examined three days thereafter.
(§1) Percentage of control was determined by the following procedure. The rate of diseased area on the tested leaf was measured and classified in one of the six infectious indexes (0, 1, 2, 3, 4, 5) according to the undermentioned criteria. The number of leaves corresponding to each infectious index (n0, n1, n2, n3, n4, n5) was determined, and calculation was effected according to the undermentioned equation.

Botrytis cinerea [2] = assay: Test for Botrytis cinerea-controlling effect on cucumbers: disease preventing effect; assay type: in vivo; settings: cucumber; 50 ppm active ingredient, 7 ml per pot; 3 days after inoculation
Procedure: An aqueous dilution of the test compound in the form of a wettable powder preparation was applied to cotyledons of cucumbers, cultered in pots of 9 cm in diameter and the first leaf was nipped off when it developed, at a rate of 7 ml per pot. After one day, agar discs (diameter: 5 mm) with Botrytis cinerea were attached to the leaves for inoculation. Three days thereafter, the disease severity was observed, and the disease-controllingeffect was estimated.
as §1

Botrytis cinerea [3] = assay: Test for Botrytis cinerea on cucumbers: effect of prevention of diseased spot-development; assay type: in vivo; settings: cucumber, 7 ml per pot, applied one day after inoculation
Procedure: The test for examining the effect of prevention of diseased spot-development was carried out in the following manner. An agar disc with the mycelium was attached to the first leaf for inoculation. After one day, the diameter of the diseased spot was measured. The solution of the test compound was applied to the plant at a rate of 7 ml per pot, and two days thereafter, the diameter of the diseased spot was again measured, and the effect for prevention of diseased spot-development was calculated according to the following equation: [formula]

[4] = tested on: Chaetomium globosum ATCC 6205; assay: Antimicrobial spectrum against industrial fungi, agar medium dilution method: Chaetomium globosum; assay type: cell-based; settings: ATCC6205, C. globosum, read-out: Minimal inhibitory concentration of active ingredient
Source text: (§2) The effect for inhibition of hyphae growth was examined by the agar medium dilution method on Aspergillus niger ATCC 6275, Cladosporium herbarum IAM F 517 and Chaetomium globosum ATCC 6205 multiplying on industrial products and damaging them.

[5] = tested on: Aspergillus niger ATCC 6275; assay: Antimicrobial spectrum against industrial fungi, agar medium dilution method: Aspergillus niger; assay type: cell-based; settings: ATCC6275, A. niger, read-out: Minimal inhibitory concentration of active ingredient
Source text: as §2

[6] = tested on: Cladosporium herbarum IAM F 517; assay: Antimicrobial spectrum against industrial fungi, agar medium dilution method: Cladosporium herbarum; assay type: cell-based; settings: IAMF517, C. herbarum, read-out: Minimal inhibitory concentration of active ingredient
Source text: as §2

SMILES	Degree of damage (Alternaria bracissicola; 100 ppm active ingredient)	Degree of damage (Alternaria bracissicola; 200 ppm active ingredient)	Degree of damage (Sclerotinia sclerotiorum)	Disease-preventing value: Systemic activity (Botrytis cinerea [1])	Disease-preventing value: Disease preventing effect (Botrytis cinerea [2])	also measured
CS(=O)(=O)N1CC(=O)N(c2cc(Cl)cc(Cl)c2)C1=O [Compound 53]	7%	11%				
CCS(=O)(=O)N1CC(=O)N(c2cc(Cl)cc(Cl)c2)C1=O [Compound 54]	5%	2%	12%			
CCCS(=O)(=O)N1CC(=O)N(c2cc(Cl)cc(Cl)c2)C1=O [Compound 55]	0%	0%	0%	88%	100%	Degree of damage (Pellicularia sasakii): 25%; Effect for prevention of diseased spot-development (Botrytis cinerea [3]; 100 ppm): 88%
CC(C)S(=O)(=O)N1CC(=O)N(c2cc(Cl)cc(Cl)c2)C1=O [Compound 56]			0%	92%	100%	Degree of damage (Pellicularia sasakii): 19%; Effect for prevention of diseased spot-development (Botrytis cinerea [3]; 100 ppm): 78%
CCCCS(=O)(=O)N1CC(=O)N(c2cc(Cl)cc(Cl)c2)C1=O [Compound 57]	1%	0%	0%	79%	98%	Effect for prevention of diseased spot-development (Botrytis cinerea [3]; 100 ppm): 65%
CC(C)CS(=O)(=O)N1CC(=O)N(c2cc(Cl)cc(Cl)c2)C1=O [Compound 58]				63%	100%	Effect for prevention of diseased spot-development (Botrytis cinerea [3]; 100 ppm): 73%
CCC(C)S(=O)(=O)N1CC(=O)N(c2cc(Cl)cc(Cl)c2)C1=O (stereo not shown) [Compound 59]						MIC [4]: 1000 µg/mL (≈ 2740 µM); MIC [5]: 1000 µg/mL (≈ 2740 µM); Degree of damage (Pellicularia sasakii): 19%; MIC [6]: 1000 µg/mL (≈ 2740 µM)
CCCCCS(=O)(=O)N1CC(=O)N(c2cc(Cl)cc(Cl)c2)C1=O [Compound 61]						MIC [4]: 1000 µg/mL (≈ 2640 µM); MIC [5]: 1000 µg/mL (≈ 2640 µM); MIC [6]: 2000 µg/mL (≈ 5270 µM)
C=CCS(=O)(=O)N1CC(=O)N(c2cc(Cl)cc(Cl)c2)C1=O [Compound 63]			9%			
CCCS(=O)(=O)N1CC(=O)N(c2cc(Br)cc(Br)c2)C1=O [Compound 64]			0%			
CCCS(=O)(=O)N1C(=O)N(c2cc(Cl)cc(Cl)c2)C(=O)C1C (stereo not shown) [Compound 66]			3%			Degree of damage (Pellicularia sasakii): 16%
CCCS(=O)(=O)N1C(=O)N(c2cc(Cl)cc(Cl)c2)C(=O)C1(C)C [Compound 69]	21%	6%				
O=C1CN(S(=O)(=O)CCCCl)C(=O)N1c1cc(Cl)cc(Cl)c1 [Compound 70]	2%	1%	0%			
CCCCNC(=O)n1c(NC(=O)OC)nc2ccccc21 [Methyl-1-(butylcarbamoyl)-2-benzimidazole carbamate, reference compound]			32%	91%	90%	Effect for prevention of diseased spot-development (Botrytis cinerea [3]; 500 ppm): 87%
CCC(=O)N1CC(=O)N(c2cc(Cl)cc(Cl)c2)C1=O [reference compound]				0%	89%	Effect for prevention of diseased spot-development (Botrytis cinerea [3]; 500 ppm): 21%
O=C1CNC(=O)N1c1cc(Cl)cc(Cl)c1 [reference compound]				0%	70%	Effect for prevention of diseased spot-development (Botrytis cinerea [3]; 500 ppm): 13%
